Columns and labels:
Beclin-1 = assay: Western blot for Beclin-1 protein; assay type: cell-based, human; conditions: HaCaT cells; 20 uM dilution, 1 ml added to 1 ml medium; FIG. 1
Method: In order to analyze which gene expression is related to increased autophagy activation by Compound 8 of the present invention, a western blot analysis for Beclin-1 and ULK-1 (Serine/threonine-protein kinase-1) proteins which are closely related to autophagy activation was performed.
As a specific experimental method, HaCaT cells, human-derived keratinocytes were seeded on a 60Ø dish at a density of 3×10^5 cells, and cultured in DMEM (Dulbecco's Modified Eagle Media, Gibco BRL) in an incubator under 37° C. and 5% CO2 for 24 hours. Compound 8 of the present invention was dissolved in DMSO at a concentration of 10 mM each to be a concentrate, and diluted with a medium to be at a concentration of 20 uM. Then in a state where 1 ml of medium was first in each well, 1 ml of each diluted solution was added thereto for treatment, and cultured for a certain period, and after completing the culturing, the medium was removed, and then cells were disrupted with a SDS sample buffer, and each protein was separated by SDS-PAGE gel electrophoresis, and transferred to a PVDF membrane. […]

[1] = test system: IL-36G (interleukin 36, gamma); assay: RT-PCR of psoriasis-related gene IL-36G; assay type: cell-based, human; conditions: HEKa cells, 20 uM, FIGS. 2 and 3
Method: (§1) A psoriasis-related genes were selected from the cDNA array result in which Compound 8 of the present invention was treated in HaCaT cells. In order to analyze whether Compound 8 has an effect on psoriasis alleviation, RT-PCR analysis for IL-36′ (interleukin 36 gamma), KLK7 (Kallikrein-related peptidase 7), OASL (2′-5′-Oligoadenylate Synthetase Like) and ALOX12B (Arachidonate 12-lipoxygenase, 12R type) which are very closely related to psoriasis was carried out. Further, KRT16 (Keratin 16), KRT6 (Keratin 6) and KRT1 (Keratin 1), known as psoriasis-related proliferation, differentiation markers were confirmed by a western blot analysis. As the specific experimental method, HEKa cells (Human Epidermal keratinocytes, adult), human-derived epidermal keratinocytes were seeded on a 24 well plate at a density of 1×10^5 cells, and cultured in an EpiLife medium (1× Human keratinocyte Growth supplement, 1× antibiotics) in an incubator under 37° C. and 5% CO2 for 24 hours. […]

[2] = test system: Tbet (T-box transcription factor); assay: Expression of psoriasis-related transcription factor Tbet in induced inflammatory condition; assay type: cell-based, human; conditions: IL-17A/TNFα- or IL-17A/IFNγ-induced inflammatory condition
Method: [The source words this procedure for another target and says it was used here with some conditions changed.] as §1

[3] = test system: STAT3 (Signal transducer and activator of transcription 3); assay: Expression of psoriasis-related transcription factor STAT3 in induced inflammatory condition; assay type: cell-based, human; conditions: IL-17A/TNFα- or IL-17A/IFNγ-induced inflammatory condition
Foxp3 (forkhead box P3) = assay: Expression of psoriasis-related transcription factor Foxp3 in induced inflammatory condition; assay type: cell-based, human; conditions: IL-17A/TNFα- or IL-17A/IFNγ-induced inflammatory condition
Method: [The source words this procedure for another target and says it was used here with some conditions changed.] as §1

IL-24 (interleukin-24) = assay: Cytokine gene expression, IL-24, TNFα/IFN-γ induced inflammatory condition; assay type: cell-based, human; conditions: FIG. 8
IL-8 (interleukin-8) = assay: Cytokine gene expression, IL-8, IL-17A/TNF-α condition; assay type: cell-based, human; conditions: FIG. 9
[4] = test system: IL-1β (interleukin-1beta); assay: ELISA for IL-1β in LPS-treated HEKa cells; assay type: cell-based, human; conditions: LPS-induced inflammatory condition, 10·M, FIG. 10
Method: ELISA (enzyme-linked immunosorbent assay) for IL-1β (interleukin-1beta) which is very closely related to atopic inflammation and psoriasis was performed.
As a specific experimental method, HEKa cells (Human Epidermal keratinocytes, adult), human-derived epidermal keratinocytes were seeded on a 24 well plate at a density of 1×10^5 cells, and cultured in an EpiLife medium (1× Human keratinocyte Growth supplement, 1× antibiotics) in an incubator under 37° C. and 5% CO2 for 24 hours.
After culturing, while an inflammatory condition was induced by treatment with LPS (lipopolysaccharides) in each well, further treatment was performed with Compound 8 of the present invention and the compound of the following Comparative Example at a concentration of 10·M, and then the cells were incubated for a certain period. After completing culturing, media were collected, and then ELISA for IL-1β was carried out, and the results are shown in FIG. 10.

[5] = test system: psoriasis animal model induced by imiquimod 5% cream; assay: Psoriasis animal model (imiquimod), clinical findings: erythema; assay type: in vivo, BALB/c mice
Method: In order to confirm the psoriasis treatment effect by Compound 8 of the present invention, dorsal hair of 8-week-old BALB/c mice (female) was removed using hair removal cream (Veet®, Oxy Reckitt Benckiser, Cedex, France), and subsequently imiquimod 5% cream (Aldara®; 3M Pharmaceuticals, UK; 62.5 mg) was applied on the back and both ears of the mice twice in the morning and in the afternoon (Sensitization; Day 0). Then, after a barrier recovery period of 2 days, imiquimod 5% cream (62.5 mg/day) was applied repeatedly for 7 days (Induction stage; Day 2 -Day 8), thereby inducing the psoriasis animal model.
After inducing the psoriasis animal model, Compound 8 of the present invention dissolved in ethanol (0.5%) and cream containing Compound 8 of the present invention (The same composition as that of the cosmetic composition of Example 14 […]; […]). An untreated control group and a disease control group (vehicle) were treated with cream not containing Compound 8 of the present invention (cosmetic composition of Comparative Example 2) and ethanol, and during the treatment period, imiquimod 5% cream was applied thereon every other day, thereby maintaining psoriasis.

`CCCCCCCCCCCCCCCC(=O)NCCCC[C@H](NC(=O)[C@H](CCCCN(CC(=O)O)CC(=O)O)N(CC(=O)O)CC(=O)O)C(=O)O` [Compound 8] was tested, and the “expression of Beclin-1 protein” value (Beclin-1) was “significantly increased”, the “expression level of IL-36G gene” value [1] was “significantly decreased” and the “expression level of Tbet” value [2] was “reduced”. The “expression level of STAT3” value [3] was “reduced”, the “expression level of Foxp3” value (Foxp3 (forkhead box P3)) was “reduced” and the “expression level of IL-24” value (IL-24 (interleukin-24)) was “reduced”. The “expression level of IL-8” value (IL-8 (interleukin-8)) was “reduced”, the “cytokine IL-1β secretion level” value [4] was “significantly reduced” and the “erythema on day 14, reduction level” value ([5]; day 14 after treatment, FIG. 14) was “very remarkable”. For the same molecule, the “erythema increased by imiquimod” value ([5]; topical on back, 0.5% in ethanol or 0.5% cream, treatment for 6 days, FIG. 13) was “significantly reduced”.
